In PubChem BioAssay (NCI) one finds GI50 and TGI data, which are given here for 10 molecules.

Where “and” joins values, the source holds several entries; their conditions need not be identical. Equal values may be shown once.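 All cell lines were grown in 96-well plates and treated with compound for 48 hours. At the GI50, growth is halved. TGI marks complete inhibition of growth.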

Some test systems named below: 786-0 renal; CCRF-CEM leukemia; HCT-116 colon; HCT-15 colon; HL-60(TB) leukemia; NCI/ADR-RES ovarian; TK-10 renal; K-562 leukemia; MALME-3M melanoma; U251 CNS.
Holding throughout (experiment): NCI anticancer screen, dose series, 48 h

For the molecule `COc1cc(C(=O)OCCCCCCCCCCC[P+](c2ccccc2)(c2ccccc2)c2ccccc2)ccc1O`, the GI50 with 786-0 renal was 1.06 µM; with CCRF-CEM leukemia it was 0.434 µM; with HCT-116 colon it was 0.273 µM; in the test with HCT-15 colon it was 1.38 µM; with HL-60(TB) leukemia it was 0.282 µM; in the test on NCI/ADR-RES ovarian, 2.43 µM. Further, the GI50 in the test on TK-10 renal is 1.65 µM. For the same molecule, the TGI stood at 2.38 µM in the test with 786-0 renal; 2.52 µM in the test with CCRF-CEM leukemia; 1.09 µM in the test with HCT-116 colon; 2.97 µM with HCT-15 colon; 0.734 µM in the test with HL-60(TB) leukemia; 6.52 µM with NCI/ADR-RES ovarian. For the same molecule, the TGI in the test with TK-10 renal was 4.15 µM.

As for `O=C1c2ccccc2C2(O)Nc3cc(O)ccc3C12O` (stereo not drawn), the TGI in the test on 786-0 renal, in the test on CCRF-CEM leukemia, in the test on HCT-116 colon, in the test with HCT-15 colon, with HL-60(TB) leukemia and in the test with K-562 leukemia was over 100 µM each time. Moreover, the TGI with MALME-3M melanoma, in the test on TK-10 renal and in the test with U251 CNS was over 100 µM in each case.

Turning to `O=C1OC(=O)c2c1c(-c1ccccc1)cn2-c1ccc(Cl)cc1`, the TGI in the test with 786-0 renal, in the test with CCRF-CEM leukemia, with HCT-116 colon, in the test with HCT-15 colon, in the test with HL-60(TB) leukemia and in the test with K-562 leukemia was over 100 µM in each case. Also, the TGI in the test on MALME-3M melanoma, in the test on TK-10 renal and with U251 CNS was over 100 µM in each case.

Consider `Cc1c2cc[nH]c(=O)c2c(C)c2c1[nH]c1cc(OCCN3CCN(C)CC3)ccc12`, for which the GI50 with 786-0 renal was 0.946 µM; in the test on CCRF-CEM leukemia, 1.58 µM; with HCT-116 colon, 0.339 µM; in the test on HCT-15 colon, 1.88 µM; in the test on HL-60(TB) leukemia, 1.44 µM; in the test on K-562 leukemia it was 0.949 µM. Also, the GI50 in the test on NCI/ADR-RES ovarian is 3.37 µM; in the test on TK-10 renal, 2.73 µM; in the test with U251 CNS, 0.953 µM. Besides, the TGI in the test with 786-0 renal stood at 5.09 µM; in the test on CCRF-CEM leukemia, 8.99 µM; with HCT-116 colon, 2.09 µM; in the test with HCT-15 colon, 12 µM; in the test with HL-60(TB) leukemia, 4.36 µM; in the test with K-562 leukemia, 10.7 µM. For the same molecule, the TGI in the test with NCI/ADR-RES ovarian is 16.3 µM; in the test on TK-10 renal, 13.7 µM; in the test with U251 CNS, 6.66 µM.

`O=C(c1ccccc1)c1c(NCC(O)CN2CCCC2)n(Cc2ccccc2)c(=O)n(Cc2ccccc2)c1=O` (stereo not drawn): the GI50 is 18.9 µM in the test with 786-0 renal; 24.3 µM in the test with CCRF-CEM leukemia; 15 µM in the test with HCT-116 colon; 17 µM with HCT-15 colon; 23.9 µM with K-562 leukemia; 19.5 µM with NCI/ADR-RES ovarian. Also, the figures for the GI50 with TK-10 renal and in the test with U251 CNS were 19.3 µM and 16.1 µM, respectively. In addition, the TGI in the test with 786-0 renal came to 35.5 µM; in the test on CCRF-CEM leukemia, 63.6 µM; with HCT-116 colon, 28.2 µM; in the test on HCT-15 colon it was 32.2 µM; in the test with K-562 leukemia it was 99.1 µM; with NCI/ADR-RES ovarian, 55.3 µM. In addition, the TGI worked out at 41.6 µM in the test with TK-10 renal and 29.6 µM in the test on U251 CNS.

Turning to `CCSc1nnc2c(-c3ccccc3)n[nH]c2n1`, the TGI in the test with 786-0 renal, with CCRF-CEM leukemia, in the test with HCT-116 colon, with HCT-15 colon, with HL-60(TB) leukemia and in the test on K-562 leukemia was over 100 µM in each case. The TGI in the test on NCI/ADR-RES ovarian, in the test with TK-10 renal and with U251 CNS was over 100 µM each time.

For the molecule `O=[As](O)(O)c1ccc(NCc2ccccc2)cc1`, the TGI with 786-0 renal, with HCT-116 colon, in the test with HCT-15 colon, in the test on K-562 leukemia, in the test with MALME-3M melanoma and with NCI/ADR-RES ovarian was over 100 µM each time. In addition, the TGI in the test on TK-10 renal and in the test on U251 CNS was over 100 µM throughout.

For the molecule `CN1CCc2cc3c(cc2C1O)OCO3` (stereo not drawn), the GI50 was 17.6 µM and > 100 µM in the test with 786-0 renal; 10.1 µM and > 100 µM in the test on CCRF-CEM leukemia; 19.2 µM and > 100 µM in the test with HCT-116 colon; 20.8 µM and > 100 µM with HCT-15 colon; 28.8 µM and > 100 µM in the test on HL-60(TB) leukemia; 23.5 µM and > 100 µM in the test with NCI/ADR-RES ovarian. Further, the GI50 with TK-10 renal is 19.7 µM and > 100 µM. Moreover, the TGI in the test with 786-0 renal is 34.5 µM and > 100 µM; with CCRF-CEM leukemia it was over 100 µM; in the test on HCT-116 colon, 36.2 µM and > 100 µM; with HCT-15 colon, 45 µM and > 100 µM; with HL-60(TB) leukemia it was 69.9 µM and > 100 µM; with K-562 leukemia it was over 100 µM. Also, the TGI in the test with NCI/ADR-RES ovarian is 59.5 µM and > 100 µM; in the test with TK-10 renal, 39.6 µM and > 100 µM; with U251 CNS it was 22.9 µM and > 100 µM.

`O=C(/C=C/c1ccc(B(O)O)cc1)/C=C/c1ccc(B(O)O)cc1`: the GI50 was 2.16 µM in the test on 786-0 renal; 2.86 µM with CCRF-CEM leukemia; 0.343 µM in the test on HCT-116 colon; 2.67 µM in the test on HCT-15 colon; 3.1 µM with K-562 leukemia; 6.3 µM in the test on MALME-3M melanoma. The GI50 in the test on NCI/ADR-RES ovarian was 17 µM; with TK-10 renal it was 5.12 µM; in the test with U251 CNS, 2.82 µM. The TGI in the test with 786-0 renal is 5.57 µM; in the test with CCRF-CEM leukemia, 9.58 µM; with HCT-116 colon, 1.21 µM; with HCT-15 colon it was 10.7 µM; with K-562 leukemia it was over 100 µM; with MALME-3M melanoma it was 20.9 µM. Also, the values for the TGI with NCI/ADR-RES ovarian, with TK-10 renal and in the test with U251 CNS were 62.9 µM, 17.3 µM and 10.4 µM, respectively.

Consider `COc1cc(-c2nn3c(/C=C4/C(=O)Nc5ccccc54)c(-c4ccc(C)cc4)nc3s2)cc(OC)c1OC`, for which the GI50 in the test with 786-0 renal was 5.8 µM; in the test with HCT-116 colon it was 2.59 µM; in the test with HCT-15 colon, 2.68 µM; in the test with HL-60(TB) leukemia it was over 100 µM; in the test on MALME-3M melanoma, 0.765 µM; with NCI/ADR-RES ovarian, 3.05 µM. Moreover, the GI50 in the test with TK-10 renal is 1.69 µM; with U251 CNS, 1.59 µM. In addition, the TGI in the test on 786-0 renal is 21.4 µM; in the test with HCT-116 colon it was 13.8 µM; in the test with HCT-15 colon, over 100 µM; with HL-60(TB) leukemia, over 100 µM; in the test with MALME-3M melanoma, 4.78 µM; in the test with NCI/ADR-RES ovarian it was over 100 µM. Further, the TGI with TK-10 renal turned out to be 4.38 µM; with U251 CNS, 3.43 µM.
